According to patent publication US9381182B2, “Anthranilic acid derivatives: novel inhibitors of advanced glycation end-products (AGEs) formation” (priority 2013, dated 2016):
Like-named read-outs stand apart in the source and are kept apart here.

Experiments:
[1] = tested on: rat hepatocytes (CC1-Cell line); experiment: Fructose-derived AGE-mediated intracellular ROS generation, DCFH-DA technique; assay type: cell-based; details: for Fluorescence (Average), ROS production: no test compound
Method: Methodology: DCFH-DA (Dichlorofluorescin diacetate), H2O2 (Hydrogen peroxide), DMSO (Dimethyl sulfoxide) and PBS (Phosphate buffer saline) were obtained from Sigma, St. Louis, Mo., USA. 96-well black fluorescence plates (Tissue culture treated) were purchased from Thermo Fisher Scientific, Waltham, Mass., USA.
Assay Method: Briefly, rat hepatocytes (CC1-Cell line, 6×10^4 cells/mL) were loaded on a black fluorescence 96-well tissue culture treated plate for 24 hours at 37° C. in an incubator, containing 5% CO2. The cells were serum starved for another 24 hours by adding serum free medium-MEM (minimum essential medium) prior to treatment with fructose-derived AGE and the test compounds, anthranilic acid derivatives. Initially the cells were treated with non fluorescent probe, DCFH-DA (10 μM) in the dark for 45 mins. Following incubation the cells were washed twice with 1×PBS and were treated with different concentrations of the AGEs, such as 0, 50, 100, and 200 μg/mL, to evaluate the AGEs influence on the generation of intracellular ROS in a concentration dependent manner. The cells were then treated with the test compounds (novel anthranilic acid derivatives) at various concentrations 24, 33, and 49 μM, co-incubated with the AGE (200 μg/mL) for 24 hours at 37° C. At the end of the incubation, just before 1 hour, the cells were incubated with H2O2 (0.5%) as a control.
Fluorescence Detection: The intensity of green fluorescence, which is emitted upon the oxidation of the probe in the presence of intracellular ROS, is measured at the excitation and emission wavelength of 490 nm and 520 nm, respectively, by Spectra Max Spectrophotometer, Applied Biosystems, CA, USA.
Where, • Test compound=anthranilic acid derivative • Blank=Untreated normal rat hepatocytes • Control=Hepatocytes treated with 0.5% H2O2

[2] = MTT-based cytotoxicity assay; details: mouse, 3T3 mouse fibroblast cells, 3T3 cell-line, read-out: Cytotoxicity % Inhibition
Description: Many studies have highlighted the contribution of AGEs in disease states and primarily investigated their deleterious effects and their possible mechanism of actions. Therefore, there is a need of synthesis and investigation of novel antiglycation agents, which are devoid of any adverse effects, may present a therapeutic approach for the delaying and treatment of premature aging and vascular abnormalities in diabetic patients. In the current study, we explored the novel antiglycation agents (1-18), which are potent inhibitors against the glycation process, and belong to anthranilic acid derivatives. The inhibitors were identified by using high throughput screening method, fluorescence-based antiglycation assay (see Table-1). The cytotoxicity studies were performed against mouse fibroblast cell-line (3T3 Cell-line) by employing MTT-based cytotoxicity assay. The mechanistic studies were also conducted to evaluate the effect of novel antiglycation inhibitors on AGEs-induced intracellular reactive oxygen species generation (ROS) and associated impaired proliferation in rat hepatocytes via dichlorofluorescin diacetate (DCFH-DA) and MTT-based cytotoxicity assay, respectively. Previously, these novel antiglycation inhibitors were known for anticancer and anti-inflammatory activities (Congiu C, et al., 2005).

[3] = target: T1, Human serum albumin (HSA) glycation by fructose (AGE-HSA) (Homo sapiens, UniProt P02768); experiment: In-vitro antiglycation activity against HSA glycation (fluorescence-based antiglycation assay); assay type: biochemical; details: for inhibition at 1000 µM: read-out: Antiglycation Activity % Inhibition
T1 construct: purchased Sigma Aldrich, St. Louis, Mo., USA
T1 sequence (P02768 25-609): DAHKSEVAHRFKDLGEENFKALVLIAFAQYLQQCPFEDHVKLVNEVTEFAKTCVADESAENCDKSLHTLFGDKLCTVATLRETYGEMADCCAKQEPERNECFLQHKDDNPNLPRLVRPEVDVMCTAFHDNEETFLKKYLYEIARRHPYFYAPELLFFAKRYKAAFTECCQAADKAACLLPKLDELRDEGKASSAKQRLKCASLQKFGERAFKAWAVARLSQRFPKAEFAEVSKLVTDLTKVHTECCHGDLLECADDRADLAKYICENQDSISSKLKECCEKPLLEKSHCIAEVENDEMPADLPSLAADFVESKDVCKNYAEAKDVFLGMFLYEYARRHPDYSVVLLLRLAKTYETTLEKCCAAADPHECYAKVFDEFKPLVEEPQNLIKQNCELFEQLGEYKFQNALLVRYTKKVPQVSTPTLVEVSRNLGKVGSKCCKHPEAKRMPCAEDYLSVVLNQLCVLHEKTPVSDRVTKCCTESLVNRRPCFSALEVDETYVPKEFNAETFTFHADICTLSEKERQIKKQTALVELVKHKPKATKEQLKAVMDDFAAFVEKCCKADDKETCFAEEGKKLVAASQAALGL
Method: Methodology: Human serum albumin (HSA) free from essential fatty acids and rutin were obtained from Sigma Aldrich, St. Louis, Mo., USA. D-fructose, sodium azide (NaN3) and dimethyl sulfoxide (DMSO) were acquired from Merck, Darmstadt, Germany. All solutions were prepared in sterile environment in deionized water at room temperature.
Assay Method: The assay was performed according the protocol of (Sattarahmady N, et al., 2007) with a little modification. […] Each sample solution (200 μL, final reaction volume) in triplicate loaded a 96-wll black fluorescence plate and was incubated for a week at 37° C. in an incubator.

[4] = tested on: rat hepatocytes (CC1-Cell line); experiment: AGE-mediated reduced growth of rat hepatocytes, MTT assay; assay type: cell-based; details: for Absorbance (Average): 540 nm
Description: Methodology: Normal, rat hepatocytes (CC1-Cell line) was purchased from ATCC, Manassas, Va., USA. MEM (Minimum Essential Medium) with L-glutamine, trypsin-EDTA, sodium bicarbonate and penicillin-streptomycin were obtained from Sigma, St. Louis, Mo., USA. 96-well tissue culture treated, sterile, round bottom plates were acquired from Thermo Fisher Scientific, Waltham, Mass., USA.
All the treatment with the AGEs and the test compound were done in SFM (serum free medium), and Triton X-100 treated hepatocytes were used as a blank, while untreated normal cells were used as a control.
Determination of Cellular Proliferation: At the end of the incubation, the sample solution was removed and MTT-dye ((2 mg/mL, 50 μL) was added to each well. The final reaction volume (200 μL) was reconstituted by MEM (serum free-Minimum essential media). The plate was incubated for 4 hours at 37° C. in 5% CO2 containing incubator. Following incubation, the serum free medium was removed and the crystals were dissolved by adding DMSO (100 μL) in each well.
Absorbance Detection: The absorbance of the colored solution was measured at 540 nm by Spectra Max Spectrophotometer, Applied Biosystems, CA, USA.
Where, • Test Compound=Novel anthranilic acid derivative • Blank=Hepatocytes treated with Triton X-100 • Control=Untreated normal rat hepatocytes

[5] = compound 24 μM, co-incubated with AGEs 200 μg/mL, 24 hours
[6] = compound 33 μM, co-incubated with AGEs 200 μg/mL, 24 hours
[7] = compound 49 μM, co-incubated with AGEs 200 μg/mL, 24 hours
[8] = read-out: Antiglycation Activity IC50 ± SEM

Row | Compound | cytotoxicity [2] | inhibition at 1000 µM [3] | IC50 [3] | also measured
1 | O=C(O)c1ccccc1Nc1ccc([N+](=O)[O-])cc1[N+](=O)[O-] [Compound 1, 2-(2,4-Dinitroanilino)benzoic acid] | 1.5% | 90% |  | inhibition at 24 µM ([1]; Rattus norvegicus, Hepatocyte, compound 24 μM, co-incubated with AGEs 200 μg/mL, 24 hours, read-out: Percentage Inhibition of AGE-induced intracellular ROS generation): 93.4%; inhibition at 33 µM ([1]; Rattus norvegicus, Hepatocyte, compound 33 μM, co-incubated with AGEs 200 μg/mL, 24 hours, read-out: Percentage Inhibition of AGE-induced intracellular ROS generation): 86.9%; inhibition at 49 µM ([1]; Rattus norvegicus, Hepatocyte, compound 49 μM, co-incubated with AGEs 200 μg/mL, 24 hours, read-out: Percentage Inhibition of AGE-induced intracellular ROS generation): 63.2%; Fluorescence (Average) [1, 5]: 90.6; Fluorescence (Average) [1, 6]: 101.2; inhibitory influence on the intracellular generation of ROS (in words) ([1]; compound 49 μM, AGE 200 μg/mL): moderate inhibitory influence; Fluorescence (Average) [1, 7]: 139.5; IC50 [3, 8]: 67.2 ± 0.004 µM; inhibition at 24 µM ([4]; Rattus norvegicus, Hepatocyte, 24 h, compound 24 μM, co-incubated with AGEs 200 μg/mL, 24 hours, read-out: Percentage Inhibition (growth inhibition of hepatocytes)): 12%; inhibition at 33 µM ([4]; Rattus norvegicus, Hepatocyte, 24 h, compound 33 μM, co-incubated with AGEs 200 μg/mL, 24 hours, read-out: Percentage Inhibition (growth inhibition of hepatocytes)): 18.5%; inhibition at 49 µM ([4]; Rattus norvegicus, Hepatocyte, 24 h, compound 49 μM, co-incubated with AGEs 200 μg/mL, 24 hours, read-out: Percentage Inhibition (growth inhibition of hepatocytes)): 18.8%; Percentage Inhibition (growth inhibition of hepatocytes) ([4]; compound 24 μM, co-incubated with AGEs 200 μg/mL, 24 hours, 24 µM): 12.3%; Absorbance (Average) [4, 5]: 1.15; cytotoxic effect of the AGEs on the hepatocytes in presence of compound (in words) ([4]; compound 33 μM, AGEs 200 μg/mL): no cytotoxic effect; Absorbance (Average) [4, 6]: 1.09; reducing the toxic effects of the AGEs on the hepatocytes proliferation (in words) ([4]; compound 49 μM, AGEs 200 μg/mL): safe and effective; Absorbance (Average) [4, 7]: 1.08
2 | O=C(O)c1ccccc1Nc1ccc(Cl)cc1[N+](=O)[O-] [Compound 2, 2-(4-Chloro-2-nitroanilino)benzoic acid] | 5.6% | 82% | 137 ± 0.002 µM | 
3 | COc1cc(OC)c(Nc2ccccc2C(=O)O)cc1Cl [Compound 3, 2-(5-Chloro-2,4-dimethoxyanilino)benzoic acid] | 22.4% | 75.1% | 266 ± 0.016 µM | 
4 | O=C(O)c1ccccc1Nc1ccc(Cl)c([N+](=O)[O-])c1 [Compound 4, 2-(4-Chloro-3-nitroanilino)benzoic acid] | 19.7% | 68.9% | 266 ± 0.01 µM | 
5 | O=C(O)c1ccccc1Nc1ccc(Cl)cc1 [Compound 5, 2-(4-Chloroanilino)benzoic acid] | 41.3% | 62% | 298 ± 0.015 µM | 
6 | O=C(O)c1ccccc1Nc1ccccc1Cl [Compound 6, 2-(2-Chloroanilino)benzoic acid] | 0.9% | 68% | 426 ± 0.017 µM | 
7 | O=C(O)c1ccccc1Nc1cc(Cl)cc([N+](=O)[O-])c1 [Compound 7, 2-(3-Chloro-5-nitroanilino)benzoic acid] | 13% | 84.4% | 166 ± 0.017 µM | 
8 | Cc1ccc(Cl)cc1Nc1ccccc1C(=O)O [Compound 8, 2-(5-Chloro-2-methylanilino)benzoic acid] | 3.2% | 69% | 408 ± 0.03 µM | 
9 | O=C(O)c1ccccc1Nc1cc([N+](=O)[O-])ccc1Cl [Compound 9, 2-(2-Chloro-5-nitroanilino)benzoic acid] | 3% | 79.4% | 314 ± 0.01 µM | 
10 | O=C(O)c1ccccc1Nc1ccc(F)cc1F [Compound 10, 2-(2,4-Difluoroanilino)benzoic acid] | 1.1% | 63% | 558 ± 0.066 µM | 
11 | O=C(O)c1ccccc1Nc1ccc(Cl)c(Cl)c1 [Compound 11, 2-(3,4-Dichloroanilino)benzoic acid] | 40.1% | 62% | 597 ± 0.021 µM | 
12 | CCCCc1ccc(Nc2ccccc2C(=O)O)cc1 [Compound 12, 2-(4-Butylanilino)benzoic acid] | 17.3% | 70% | 407 ± 0.01 µM | 
13 | Cc1cc(C)cc(Nc2ccccc2C(=O)O)c1 [Compound 13, 2-(3,5-Dimethylanilino)benzoic acid] | 4.8% | 65% | 457 ± 0.019 µM | 
14 | O=C(O)c1ccccc1Nc1cc(Cl)c([N+](=O)[O-])cc1Cl [Compound 14, 2-(2,5-Dichloro-4-nitroanilino)benzoic acid] | 29.6% | 88.8% | 84.8 ± 0.003 µM | 
15 | O=C(O)c1ccccc1Nc1cc(Cl)ccc1Cl [Compound 15, 2-(2,5-Dichloroanilino)benzoic acid] | 1.6% | 62% | 678 ± 0.047 µM | 
16 | O=C(O)c1ccccc1Nc1cccc([N+](=O)[O-])c1 [Compound 16, 2-(3-Nitroanilino)benzoic acid] | 4.1% | 80% |  | IC50 [3, 8]: 264 ± 0.013 µM
17 | O=C(O)c1ccccc1Nc1cc(Cl)ccc1[N+](=O)[O-] [Compound 17, 2-(5-Chloro-2-nitroanilino)benzoic acid] | 1.5% | 78% | 150 ± 0.001 µM | 
18 | COc1cccc(Nc2ccccc2C(=O)O)c1 [Compound 18, 2-(3-Methoxyanilino)benzoic acid] | 7.1% | 71% | 398 ± 0.007 µM | 
19 | C[C@@H]1O[C@@H](OC[C@H]2O[C@@H](Oc3c(-c4ccc(O)c(O)c4)oc4cc(O)cc(O)c4c3=O)[C@H](O)[C@@H](O)[C@@H]2O)[C@H](O)[C@H](O)[C@H]1O [rutin, reference compound] |  |  |  | IC50 [3, 8]: 70 ± 0.5 µM
20 | AGEs |  |  |  | Fluorescence (Average), ROS production ([1]; 50 μg/mL, 24 hours): 114.4; Fluorescence (Average), ROS production ([1]; 100 μg/mL, 24 hours): 135.3; Fluorescence (Average), ROS production ([1]; 200 μg/mL, 24 hours): 201.9
